Reference: ChEMBL document CHEMBL1201862, “PubChem BioAssay data set” (2004)
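Each compound was tested at five concentrations against cells in 96-well plates for 48 hours. GI50: concentration for 50% inhibition of growth.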 Active and inactive are the calls of the source. No stated cut-off is given here; in the data, active = GI50 up to about 1.1 µM and inactive = higher.

Assays:
Experiment in all cases: inhibition of tumour cell growth, NCI panel, 48 h
[1] = test system: KM12
[2] = test system: M14
[3] = test system: MDA-MB-435
[4] = test system: COLO 205
[5] = test system: MDA-MB-231
[6] = test system: BT-549
[7] = test system: SK-MEL-28
[8] = test system: SK-MEL-5
[9] = test system: OVCAR-4
[10] = test system: NCI-H226
[11] = test system: CAKI-1
[12] = test system: ACHN
[13] = test system: PC-3
[14] = test system: MCF7
[15] = test system: Malme-3M
[16] = test system: OVCAR-8
[17] = test system: NCI-H23
[18] = test system: OVCAR-5
[19] = test system: CCRF-CEM
[20] = test system: 786-0
[21] = test system: HT-29
[22] = test system: NCI-H460
[23] = test system: SK-OV-3
[24] = test system: MOLT-4
[25] = test system: SF-539
[26] = test system: RXF 393
[27] = test system: Hs-578T
[28] = test system: SF-268
[29] = test system: TK-10
[30] = test system: DU-145
[31] = test system: HCT-116
[32] = test system: SN12C
[33] = test system: RPMI-8226
[34] = test system: OVCAR-3
[35] = test system: UACC-62
[36] = test system: HOP-92
[37] = test system: EKVX
[38] = test system: SK-MEL-2
[39] = test system: A549
[40] = test system: K562
[41] = test system: HL-60
[42] = test system: SNB-19
[43] = test system: SF-295
[44] = test system: T47D
[45] = test system: HCT-15
[46] = test system: HOP-62
[47] = test system: SW-620
[48] = test system: HCC 2998
[49] = test system: UACC-257
[50] = test system: U-251
[51] = test system: LOX IMVI
[52] = test system: IGROV-1
[53] = test system: NCI/ADR-RES
[54] = test system: MDA-N
[55] = test system: NCI-H522
[56] = test system: SNB-75
[57] = test system: UO-31
[58] = test system: A498

COc1ccc(C2SC(=N)Nc3c2c(C)nn3C(=O)c2ccc(Cl)cc2)cc1 (stereo not given)
GI50 [1]: > 10 µM (inactive)
GI50 [2]: > 10 µM (inactive)
GI50 [3]: > 10 µM (inactive)
GI50 [4]: > 10 µM (inactive)
GI50 [5]: > 10 µM (inactive)
GI50 [6]: > 10 µM (inactive)
GI50 [7]: > 10 µM (inactive)
GI50 [8]: > 10 µM (inactive)
GI50 [9]: > 10 µM (inactive)
GI50 [10]: > 10 µM (inactive)
GI50 [11]: > 10 µM (inactive)
GI50 [12]: > 10 µM (inactive)
GI50 [13]: > 10 µM (inactive)
GI50 [14]: > 10 µM (inactive)
GI50 [15]: > 10 µM (inactive)
GI50 [16]: > 10 µM (inactive)
GI50 [17]: > 10 µM (inactive)
GI50 [18]: > 10 µM (inactive)
GI50 [19]: > 10 µM (inactive)
GI50 [20]: > 10 µM (inactive)
GI50 [21]: > 10 µM (inactive)
GI50 [22]: > 10 µM (inactive)
GI50 [23]: > 10 µM (inactive)
GI50 [24]: > 10 µM (inactive)
GI50 [25]: > 10 µM (inactive)
GI50 [26]: > 10 µM (inactive)
GI50 [27]: > 10 µM (inactive)
GI50 [28]: > 10 µM (inactive)
GI50 [29]: > 10 µM (inactive)
GI50 [30]: > 10 µM (inactive)
GI50 [31]: > 10 µM (inactive)
GI50 [32]: > 10 µM (inactive)
GI50 [33]: > 10 µM (inactive)
GI50 [34]: > 10 µM (inactive)
GI50 [35]: > 10 µM (inactive)
GI50 [36]: > 10 µM (inactive)
GI50 [37]: > 10 µM (inactive)
GI50 [38]: > 10 µM (inactive)
GI50 [39]: > 10 µM (inactive)
GI50 [40]: > 10 µM (inactive)
GI50 [41]: > 10 µM (inactive)
GI50 [42]: > 10 µM (inactive)
GI50 [43]: > 10 µM (inactive)
GI50 [44]: > 10 µM (inactive)
GI50 [45]: > 10 µM
GI50 [46]: > 10 µM (inactive)
GI50 [47]: > 10 µM (inactive)
GI50 [48]: > 10 µM (inactive)
GI50 [49]: > 10 µM (inactive)
GI50 [50]: > 10 µM (inactive)
GI50 [51]: > 10 µM (inactive)
GI50 [52]: > 10 µM (inactive)
GI50 [53]: > 10 µM (inactive)
GI50 [54]: > 10 µM (inactive)
GI50 [55]: > 10 µM (inactive)
GI50 [56]: > 10 µM (inactive)

CC(C)(C)c1cc(C2COC(c3cc(C(C)(C)C)c(O)c(C(C)(C)C)c3)CO2)cc(C(C)(C)C)c1O (stereo not given)
GI50 [1]: > 100 µM (inactive)
GI50 [2]: > 100 µM (inactive)
GI50 [3]: > 100 µM (inactive)
GI50 [57]: > 100 µM (inactive)
GI50 [4]: 33.1 µM (inactive)
GI50 [5]: > 100 µM (inactive)
GI50 [6]: > 100 µM (inactive)
GI50 [7]: > 100 µM (inactive)
GI50 [8]: > 100 µM (inactive)
GI50 [9]: > 100 µM (inactive)
GI50 [10]: > 100 µM (inactive)
GI50 [11]: > 100 µM (inactive)
GI50 [12]: > 100 µM (inactive)
GI50 [13]: > 100 µM (inactive)
GI50 [14]: > 100 µM (inactive)
GI50 [15]: > 100 µM (inactive)
GI50 [16]: > 100 µM (inactive)
GI50 [17]: > 100 µM (inactive)
GI50 [18]: > 100 µM (inactive)
GI50 [19]: > 100 µM (inactive)
GI50 [20]: > 100 µM (inactive)
GI50 [21]: > 100 µM (inactive)
GI50 [23]: > 100 µM (inactive)
GI50 [58]: > 100 µM (inactive)
GI50 [25]: > 100 µM (inactive)
GI50 [26]: > 100 µM (inactive)
GI50 [27]: > 100 µM (inactive)
GI50 [28]: > 100 µM (inactive)
GI50 [29]: > 100 µM (inactive)
GI50 [30]: > 100 µM (inactive)
GI50 [31]: 51.6 µM (inactive)
GI50 [32]: > 100 µM (inactive)
GI50 [33]: > 100 µM (inactive)
GI50 [34]: > 100 µM (inactive)
GI50 [35]: > 100 µM (inactive)
GI50 [36]: > 100 µM (inactive)
GI50 [37]: > 100 µM (inactive)
GI50 [38]: > 100 µM (inactive)
GI50 [39]: > 100 µM (inactive)
GI50 [40]: > 100 µM (inactive)
GI50 [42]: > 100 µM (inactive)
GI50 [43]: > 100 µM (inactive)
GI50 [44]: > 100 µM (inactive)
GI50 [45]: > 100 µM
GI50 [46]: > 100 µM (inactive)
GI50 [47]: > 100 µM (inactive)
GI50 [49]: > 100 µM (inactive)
GI50 [50]: 90.4 µM (inactive)
GI50 [51]: > 100 µM (inactive)
GI50 [52]: > 100 µM (inactive)
GI50 [53]: > 100 µM (inactive)
GI50 [54]: > 100 µM (inactive)
GI50 [55]: > 100 µM (inactive)
GI50 [56]: > 100 µM (inactive)
